Among the data in PubChem BioAssay (NCI) are TGI and GI50 values, retold here.

Holding throughout (experiment): growth of human tumour cells (NCI), 48 h
The test system of experiment [1] is LOX IMVI melanoma.
Experiment [2] concerns A549 NSCLC.
Experiment [3] relates to M14 melanoma.
Experiment [4] has as its system SK-OV-3 ovarian.
In experiment [5] the test system is OVCAR-3 ovarian.
Experiment [6] deals with HCT-116 colon.
The subject of experiment [7] is SN12C renal.
Experiment [8] relates to UACC-62 melanoma.
In experiment [9] the test system is SF-295 CNS.
In experiment [10] the test system is RPMI-8226 leukemia.

“And” between values parts separate entries of the source, which are not always exact repeats. Identical values can stand only once.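 A five-concentration, 48-hour dose response in 96-well plates underlies each endpoint, interpolated linearly between surrounding concentrations. The concentration for 50% growth inhibition is given as GI50. TGI: total growth inhibition.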 Bounds are passed on as bounds.

Regarding `C=C1C(=O)C23C(O)C1CCC2C12CO[C@]3(O)[C@@H](O)C1C(C)(C)CCC2O` (some centres undefined), the TGI in [1] was found to be 31.4 µM; in experiment [2] it was 34.6 µM; in experiment [3], 24.1 µM; in [4], 34.5 µM; in experiment [5], 30.3 µM; in experiment [6] it was 15.5 µM. Further, the TGI was 27.9 µM in [7], 26.4 µM in [8], 30.6 µM in [9] and over 100 µM in [10].

On to `CC1OC(OC2C(OC3CCC4(C)C(CCC5(C)C4CC=C4C6CC(C)(C)CCC6(CO)C(O)CC45C)C3(C)C)OC(C(=O)O)C(OC3OC(COC4OC(CO)C(O)C(O)C4O)C(O)C(O)C3O)C2O)C(O)C(O)C1O` (centres undefined), for which the GI50 in [1] is 10.7 µM; in experiment [2], 12.2 µM; in experiment [3], 2.5 µM; in [4], 6.08 µM; in experiment [5], 12.7 µM; in [6] it was 2.05 µM. Further, the GI50 was 2.46 µM in experiment [7], 9.64 µM in experiment [8], 8.13 µM in experiment [9] and 7.79 µM in experiment [10]. Further, the TGI turned out to be 21.6 µM in experiment [1]; 28.1 µM in [2]; 9.24 µM in experiment [3]; 18 µM in experiment [4]; 24.7 µM in experiment [5]; 9.21 µM in experiment [6]. The TGI amounted to 9.19 µM in experiment [7], 20.6 µM in experiment [8], 20.2 µM in experiment [9] and 23.5 µM in experiment [10].

As to `CCOc1ccc(NC(=O)/C(=C/c2ccccc2)C(C)=O)cc1`, the TGI in [1] came out at 25.2 µM; in [2], 60.8 µM; in experiment [3] it was 26 µM; in [4], 40.7 µM; in [5], 25.3 µM; in [6], 17.5 µM. The TGI in [7] was determined as 35 µM; in experiment [8], 20.1 µM; in experiment [9], 29.4 µM; in experiment [10] it was 10.6 µM.

On to `Oc1ccc(-c2nc(-c3ccc(F)cc3)c(-c3ccncc3)[nH]2)cc1`, for which the GI50 in [1] is 28.6 µM; in experiment [2], 25.8 µM; in experiment [3] it was 4.02 µM; in [4] it was 5.21 µM; in [5], 15 µM; in [6] it was 17.4 µM. Further, the GI50 in experiment [7] is 14.9 µM; in [8], 3 µM; in [9], 20.2 µM; in [10] it was 11.7 µM. Also, the TGI is over 100 µM in experiment [1]; over 100 µM in [2]; 20.3 µM in [3]; 80.3 µM in experiment [4]; 86.9 µM in experiment [5]; 53 µM in [6]. For the same molecule, the TGI in experiment [7] was over 100 µM; in [8] it was 15.1 µM; in [9], over 100 µM; in [10], 38.2 µM.

For the molecule `O=[N+]([O-])c1ccc([I+]c2ccccc2)cc1`, the GI50 in experiment [1] was 0.583 µM; in experiment [2] it was 1.93 µM; in experiment [3], 1.97 µM; in [4], 1.73 µM; in experiment [5], 1.8 µM; in experiment [6], 1.83 µM. Further, the GI50 in experiment [7] was 1.4 µM; in experiment [8], 1.43 µM; in [9] it was 1.64 µM; in experiment [10], 4.64 µM. Moreover, the TGI in experiment [1] was 1.99 µM; in experiment [3] it was 16.4 µM and 4.33 µM; in experiment [4], 3.6 µM and 3.24 µM; in experiment [5], 12.2 µM and 3.39 µM; in [6] it was 17.5 µM and 3.8 µM; in [7], 3.26 µM and 2.89 µM. The TGI in experiment [8] is 8.17 µM and 3.62 µM; in [9] it was 10.1 µM and 3.24 µM; in experiment [10] it was 47.2 µM and 54.2 µM.

Take `C=C1CCC2C3(C)COC(c4cccc(Cl)c4)OC3CCC2(C)C1/C=C/C1=CCOC1=O` (centres undefined): the GI50 in experiment [1] was 2.72 µM; in [2], 3.31 µM; in experiment [3] it was over 100 µM; in experiment [4], over 100 µM; in experiment [5] it was 7.95 µM; in experiment [6], 3.08 µM. Further, the GI50 in experiment [7] is over 100 µM; in experiment [8], 6.35 µM; in experiment [9], 3.59 µM; in [10], 2.9 µM. In addition, the TGI in experiment [1], in experiment [2], in experiment [3], in experiment [4], in experiment [5] and in experiment [6] was over 100 µM throughout. Moreover, the TGI in experiment [7], in experiment [8], in experiment [9] and in experiment [10] was over 100 µM each time.

For the molecule `COc1ccccc1NS(=O)(=O)c1cc(C(C)(C)C)ccc1OCCOc1ccc(C(C)(C)C)cc1S(=O)(=O)Nc1ccccc1OC`, the TGI in experiment [1], in experiment [2], in experiment [3], in experiment [4], in experiment [5] and in [6] was over 100 µM in each case. The TGI in experiment [7], in experiment [8], in experiment [9] and in experiment [10] was over 100 µM in each case.

With `O=[N+]([O-])c1ccc(N=Nc2c(O)[nH]c3ccc(Br)cc23)c([N+](=O)[O-])c1`, the TGI in experiment [1] amounted to 3.17 µM; in experiment [2], 20.4 µM; in experiment [3] it was 21.2 µM; in [4] it was 34.7 µM; in experiment [5] it was 19.3 µM; in experiment [6], 3.09 µM. The TGI in experiment [7] is 11.4 µM; in [8] it was 16.2 µM; in experiment [9] it was 14.8 µM; in experiment [10] it was 9.84 µM.

`CC(=O)C(CN1CCOCC1)C(c1ccccc1)c1c(O)c2ccccc2oc1=O` (centres undefined): the TGI in experiment [1], in experiment [2], in experiment [3], in experiment [4], in [5] and in [6] was over 100 µM throughout. For the same molecule, the TGI in [7] is over 100 µM; in experiment [8] it was over 100 µM; in experiment [9] it was over 100 µM; in experiment [10], 96.4 µM.
